Legend:
[1] = tested on: normal primary NK cells, pool 3 (3 donors) (IL-2 2.5 ng/mL); experiment: percent inhibition of viability; higher = more inhibition; details: 72 h
NK-92 (IL-2 2.5 ng/mL) [2] = experiment: as above; details: 72 h
SNK-6 (IL-2 2.5 ng/mL) [3] = experiment: as above; details: 72 h
[4] = tested on: normal primary NK cells, pool 1 (3 donors), resting (IL-2 0 ng/mL); experiment: as above; details: 72 h
YT (IL-2 2.5 ng/mL) [5] = experiment: as above; details: 72 h
[6] = tested on: normal primary NK cells, pool 2 (3 donors) (IL-2 2.5 ng/mL); experiment: as above; details: 72 h
[7] = tested on: normal primary NK cells, pool 1 (3 donors) (IL-2 2.5 ng/mL); experiment: as above; details: 72 h
DERL-7 (IL-2 2.5 ng/mL) [8] = experiment: as above; details: 72 h
IMC-1 (IL-2 20 ng/mL) [9] = experiment: as above; details: 72 h
NKL (IL-2 2.5 ng/mL) [10] = experiment: as above; details: 72 h
NK-YS (IL-2 2.5 ng/mL) [11] = experiment: as above; details: 72 h
KAI3 (IL-2 2.5 ng/mL) [12] = experiment: as above; details: 72 h
KHYG-1 (IL-2 2.5 ng/mL) [13] = experiment: as above; details: 72 h
[14] = tested on: normal NK cells expanded with K562-aAPC; experiment: drug sensitivity score (DSS) (DSS units); higher = more sensitive; extreme values may be limits of the assay; details: 72 h; IL-2 2.5 ng/mL
Protocol: (§1)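 Drug sensitivity and resistance testing on K562-aAPC-expanded normal NK cells: 5 concentrations (10-fold steps over a 10,000-fold range), 72 h at 37 °C, viability by CellTiter-Glo normalised to DMSO and benzethonium chloride controls; DSS from the fitted curve.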

[15] = tested on: normal NK cells expanded with K562-aAPC; experiment: percent inhibition of viability; higher = more inhibition; details: 72 h, IL-2 2.5 ng/mL
Protocol: as §1

[16] = tested on: normal primary NK cells, pool 3 (3 donors) (IL-2 2.5 ng/mL); experiment: drug sensitivity score (DSS) (DSS units); higher = more sensitive; extreme values may be limits of the assay; details: 72 h
NK-92 (IL-2 2.5 ng/mL) [17] = experiment: as above; details: 72 h
SNK-6 (IL-2 2.5 ng/mL) [18] = experiment: as above; details: 72 h
[19] = tested on: normal primary NK cells, pool 1 (3 donors), resting (IL-2 0 ng/mL); experiment: as above; details: 72 h
YT (IL-2 2.5 ng/mL) [20] = experiment: as above; details: 72 h
[21] = tested on: normal primary NK cells, pool 2 (3 donors) (IL-2 2.5 ng/mL); experiment: as above; details: 72 h
[22] = tested on: normal primary NK cells, pool 1 (3 donors) (IL-2 2.5 ng/mL); experiment: as above; details: 72 h
DERL-7 (IL-2 2.5 ng/mL) [23] = experiment: as above; details: 72 h
IMC-1 (IL-2 20 ng/mL) [24] = experiment: as above; details: 72 h
NKL (IL-2 2.5 ng/mL) [25] = experiment: as above; details: 72 h
NK-YS (IL-2 2.5 ng/mL) [26] = experiment: as above; details: 72 h
KAI3 (IL-2 2.5 ng/mL) [27] = experiment: as above; details: 72 h
KHYG-1 (IL-2 2.5 ng/mL) [28] = experiment: as above; details: 72 h

N#CCNC(=O)c1ccc(-c2ccnc(Nc3ccc(N4CCOCC4)cc3)n2)cc1 [Momelotinib] (max concentration tested 10000 nM)
percent inhibition of viability [%]
Details	1 nM	10 nM	100 nM	1000 nM	10000 nM
DERL-7 (IL-2 2.5 ng/mL) [8]	3.73	4.25	15.9	75.2	100
IMC-1 (IL-2 20 ng/mL) [9]	-3.83	-4.31	-6.56	18.6	101
KAI3 (IL-2 2.5 ng/mL) [12]	5.39	5.27	21.2	79.2	85.8
KHYG-1 (IL-2 2.5 ng/mL) [13]	-1.96	-4.26	19.9	103	102
NK-92 (IL-2 2.5 ng/mL) [2]	-4.89	7.75	12.7	57.3	73.3
NK-YS (IL-2 2.5 ng/mL) [11]	-3.04	-5.27	11.4	54.4	98.9
NKL (IL-2 2.5 ng/mL) [10]	-4.28	-2.44	28.4	79.3	88
SNK-6 (IL-2 2.5 ng/mL) [3]	23.1	10.8	3.39	52.2	96
YT (IL-2 2.5 ng/mL) [5]	-0.29	-0.45	5.77	38.1	86.3
[1]	0.52	-6.13	-0.97	43.2	86.9
[4]	-6.11	-14.1	3.47	15.8	14.3
[6]	-6.15	-4.46	2.38	54.3	91.2
[7]	-14.4	-4.36	20.3	65.5	70.3
[15]	-1.5	4.78	16.6	72	96.9

Details	drug sensitivity score
DERL-7 (IL-2 2.5 ng/mL) [23]	16
IMC-1 (IL-2 20 ng/mL) [24]	8.56
KAI3 (IL-2 2.5 ng/mL) [27]	17.1
KHYG-1 (IL-2 2.5 ng/mL) [28]	21.2
NK-92 (IL-2 2.5 ng/mL) [17]	12.3
NK-YS (IL-2 2.5 ng/mL) [26]	12.2
NKL (IL-2 2.5 ng/mL) [25]	18.1
SNK-6 (IL-2 2.5 ng/mL) [18]	11.5
YT (IL-2 2.5 ng/mL) [20]	9.23
[14]	15.6
[16]	10.2
[19]	1.97
[21]	11.5
[22]	14.8

COc1ccc2c(OCc3nnc4ccc(-c5ccccc5)nn34)ccnc2c1 [AMG-208] (max concentration tested 2500 nM)
percent inhibition of viability [%]
Details	0.25 nM	2.5 nM	25 nM	250 nM	2500 nM
DERL-7 (IL-2 2.5 ng/mL) [8]	-3.09	-8.21	-1.7	-5.84	-4.71
IMC-1 (IL-2 20 ng/mL) [9]	-1.21	1.46	1.28	6.67	11.1
KAI3 (IL-2 2.5 ng/mL) [12]	-0.14	-2.19	-6.54	1.34	11.6
KHYG-1 (IL-2 2.5 ng/mL) [13]	-2.14	0.21	1.18	6.23	15.6
NK-92 (IL-2 2.5 ng/mL) [2]	0.24	-14.7	-6.65	10.4	13.1
NK-YS (IL-2 2.5 ng/mL) [11]	-3.94	-3.82	-0.96	1.47	6.08
NKL (IL-2 2.5 ng/mL) [10]	-4.88	-0.72	5.74	1.87	1.01
SNK-6 (IL-2 2.5 ng/mL) [3]	2.2	11.6	22.9	28.1	18.8
YT (IL-2 2.5 ng/mL) [5]	1.44	4.97	5.31	10	12.4
[1]	-8.14	-5.89	5.5	0.46	5.72
[4]	-15.8	-2.94	7.27	3.54	-2.41
[6]	-3.74	-5.68	4.86	9.98	4.41
[7]	0.88	0.76	0.54	1.27	4.15
[15]	-4.22	-2.93	1.22	-1.02	9.46

Details	drug sensitivity score
DERL-7 (IL-2 2.5 ng/mL) [23]	0.89
IMC-1 (IL-2 20 ng/mL) [24]	0.02
KAI3 (IL-2 2.5 ng/mL) [27]	0.07
KHYG-1 (IL-2 2.5 ng/mL) [28]	0.59
NK-92 (IL-2 2.5 ng/mL) [17]	0.61
NK-YS (IL-2 2.5 ng/mL) [26]	0
NKL (IL-2 2.5 ng/mL) [25]	0
SNK-6 (IL-2 2.5 ng/mL) [18]	7.74
YT (IL-2 2.5 ng/mL) [20]	0.16
[14]	0
[16]	0
[19]	0
[21]	0
[22]	0

Source: the supplement of paper PMC5908809
